# The source made the active and inactive calls.
# Legend:
# [1] = SELE mRNA upregulation in endothelial cells – cell-based, HUVEC, RT-qPCR, dry powder, orthogonal assay for E-selectin inducer project, confirmation (AID 1117270); assay type: functional
# Protein skinhead-1 = molecular target: T1, Protein skinhead-1 (Caenorhabditis elegans, UniProt P34707); assay type: functional
# T1 sequence (P34707 whole entry): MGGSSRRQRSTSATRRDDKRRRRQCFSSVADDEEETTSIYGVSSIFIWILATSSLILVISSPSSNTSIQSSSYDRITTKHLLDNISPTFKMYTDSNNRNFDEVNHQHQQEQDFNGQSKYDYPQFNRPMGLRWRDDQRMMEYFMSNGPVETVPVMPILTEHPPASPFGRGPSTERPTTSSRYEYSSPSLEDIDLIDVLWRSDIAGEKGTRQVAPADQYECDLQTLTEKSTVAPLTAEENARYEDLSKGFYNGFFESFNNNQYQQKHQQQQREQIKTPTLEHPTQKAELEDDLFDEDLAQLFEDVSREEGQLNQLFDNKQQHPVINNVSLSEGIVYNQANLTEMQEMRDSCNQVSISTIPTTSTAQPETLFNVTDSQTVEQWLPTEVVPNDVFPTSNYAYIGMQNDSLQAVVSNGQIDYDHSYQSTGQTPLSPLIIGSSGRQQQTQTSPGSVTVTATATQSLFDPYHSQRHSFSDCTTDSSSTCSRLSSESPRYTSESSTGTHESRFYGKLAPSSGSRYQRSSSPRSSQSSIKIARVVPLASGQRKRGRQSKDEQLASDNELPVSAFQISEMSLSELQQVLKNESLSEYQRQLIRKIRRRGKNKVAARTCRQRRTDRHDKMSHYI
# [2] = molecular target: T2, Oxysterols receptor LXR-beta (Homo sapiens, UniProt P55055); assay type: functional, cell-based;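 further: Cell-based luminescence dose-response assay of agonist activity at LXR, run as a confirmatory counterscreen to a daf-12 agonist screen; HEK293 cells with Gal4-LXR fusion and GAL4-driven luciferase reporter; agonist potency from rising luciferase signal of a Gal4-LXR reporter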
# T2 sequence (P55055 whole entry): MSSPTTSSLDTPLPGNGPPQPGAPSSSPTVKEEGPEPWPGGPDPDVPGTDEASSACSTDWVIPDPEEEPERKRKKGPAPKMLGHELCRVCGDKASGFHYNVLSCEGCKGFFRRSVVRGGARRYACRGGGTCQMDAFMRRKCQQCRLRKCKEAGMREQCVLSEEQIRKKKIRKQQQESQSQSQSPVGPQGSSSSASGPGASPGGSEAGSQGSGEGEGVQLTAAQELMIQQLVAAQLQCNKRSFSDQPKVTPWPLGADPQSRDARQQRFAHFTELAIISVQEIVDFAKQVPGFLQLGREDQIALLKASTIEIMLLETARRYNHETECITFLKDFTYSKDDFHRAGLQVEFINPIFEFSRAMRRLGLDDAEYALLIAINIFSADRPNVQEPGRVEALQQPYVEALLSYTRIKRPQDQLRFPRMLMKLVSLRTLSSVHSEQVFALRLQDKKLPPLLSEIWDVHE
# [3] = HGIII-sPLA2 enzyme inhibition potency – biochemical, QFRET, IC50, dose response (AID 743457);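 further: green fluorescence rise as the enzyme cleaves BODIPY PC-A2 in liposomes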
# [4] = Late stage assay provider results from the probe development effort to identify selective inhibitors of heat shock protein 90 (HSP90): Absorbance-based cell proliferation assay in SKBR3 cells.; assay type: functional; details: SK-BR-3
# [5] = molecular target: 1-phosphatidylinositol 4,5-bisphosphate phosphodiesterase beta-3 (Homo sapiens, UniProt Q01970); assay: Fluorescence-based biochemical high throughput dose response assay to identify inhibitors of phospholipase C isozymes (PLC-B3).
# Chain of 1-phosphatidylinositol 4,5-bisphosphate phosphodiesterase beta-3 (Q01970 whole entry): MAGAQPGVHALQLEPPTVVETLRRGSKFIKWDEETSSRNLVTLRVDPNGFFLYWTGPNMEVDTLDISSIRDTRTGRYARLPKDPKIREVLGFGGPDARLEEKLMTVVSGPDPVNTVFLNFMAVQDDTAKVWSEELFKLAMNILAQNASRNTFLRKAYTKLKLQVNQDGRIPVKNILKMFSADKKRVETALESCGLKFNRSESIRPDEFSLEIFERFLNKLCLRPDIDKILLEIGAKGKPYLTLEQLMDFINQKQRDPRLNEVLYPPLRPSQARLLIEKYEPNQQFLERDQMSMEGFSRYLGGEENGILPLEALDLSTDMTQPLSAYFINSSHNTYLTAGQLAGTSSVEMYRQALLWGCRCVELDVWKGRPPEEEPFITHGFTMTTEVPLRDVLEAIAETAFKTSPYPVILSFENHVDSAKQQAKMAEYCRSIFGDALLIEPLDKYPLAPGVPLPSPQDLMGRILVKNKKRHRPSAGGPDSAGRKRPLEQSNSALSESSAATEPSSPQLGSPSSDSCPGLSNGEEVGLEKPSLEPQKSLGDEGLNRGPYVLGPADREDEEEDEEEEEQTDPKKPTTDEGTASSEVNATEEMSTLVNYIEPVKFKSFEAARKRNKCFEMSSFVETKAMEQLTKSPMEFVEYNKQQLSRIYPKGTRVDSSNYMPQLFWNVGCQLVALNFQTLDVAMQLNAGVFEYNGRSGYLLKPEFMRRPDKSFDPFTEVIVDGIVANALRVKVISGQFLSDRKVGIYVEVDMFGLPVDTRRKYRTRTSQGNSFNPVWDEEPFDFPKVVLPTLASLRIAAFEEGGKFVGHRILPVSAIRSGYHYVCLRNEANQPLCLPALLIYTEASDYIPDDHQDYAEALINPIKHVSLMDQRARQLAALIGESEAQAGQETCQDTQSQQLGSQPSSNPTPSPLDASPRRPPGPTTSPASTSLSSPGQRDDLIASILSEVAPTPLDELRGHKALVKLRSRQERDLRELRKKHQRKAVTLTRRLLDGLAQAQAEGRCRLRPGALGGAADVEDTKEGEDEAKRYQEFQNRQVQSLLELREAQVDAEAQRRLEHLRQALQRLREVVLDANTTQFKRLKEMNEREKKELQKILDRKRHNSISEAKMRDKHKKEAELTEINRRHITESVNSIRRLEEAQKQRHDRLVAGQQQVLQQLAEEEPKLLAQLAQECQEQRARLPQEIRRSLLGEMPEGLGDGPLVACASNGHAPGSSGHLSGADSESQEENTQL
# H4 = assay: Luminescence Cell-Based Dose Response HTS to Identify Activators of 5'UTR Stem-Loop Driven Prion Protein mRNA Translation in H4 Neuroglioblastoma Cells. [Related pubchem assays: 1829 (Project Summary), 1814 (Primary HTS)]; assay type: functional; details: Homo sapiens
# [6] = molecular target: T3, Calpain-2 catalytic subunit (Sus scrofa, UniProt P43367); assay: m-calpain protease blockers, concentration series – biochemical, fluorogenic peptide substrate, dose response (AID 1420); assay type: functional
# T3 sequence (P43367 whole entry): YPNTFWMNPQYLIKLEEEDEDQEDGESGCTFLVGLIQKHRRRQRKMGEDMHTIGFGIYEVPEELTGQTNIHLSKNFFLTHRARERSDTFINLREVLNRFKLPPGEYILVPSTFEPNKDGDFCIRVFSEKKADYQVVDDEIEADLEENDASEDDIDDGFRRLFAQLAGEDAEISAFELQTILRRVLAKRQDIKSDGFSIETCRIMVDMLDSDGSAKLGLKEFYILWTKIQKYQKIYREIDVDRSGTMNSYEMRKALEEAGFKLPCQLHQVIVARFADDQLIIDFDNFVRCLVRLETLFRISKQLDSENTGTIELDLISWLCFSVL
# [7] = HIV-1 AD8 envelope cell-cell fusion blockers – cherry-pick, dose response (AID 652062); assay type: functional, cell-based;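 further: luciferase signal from cell-cell fusion driven by HIV-1 clade B AD8 Env; potency is for inhibitors of fusion seen as a drop in luminescence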
# [8] = Luminescence Cell-Based Dose Response HTS to Identify Activators of Luciferase Translation or Activity in H4 […] Cells. [Related pubchem assays: 1829 (Project Summary), 1814 (Primary HTS)]; assay type: functional
# [9] = blockers of HIV-1 envelope-mediated cell-cell fusion – cherry-pick, dose response (AID 652057); assay type: functional, cell-based
# [10] = Luminescence Cell-Based Dose Confirmation HTS to Identify Activators of 5'UTR Stem-Loop Driven Alpha-Synuclein mRNA Translation in H4 Neuroglioblastoma Cells. [Related pubchem assays: 1829 (Project Summary), 1814 (Primary HTS)]; assay type: functional
# [11] = molecular target: 1-phosphatidylinositol 4,5-bisphosphate phosphodiesterase gamma-1 (Homo sapiens, UniProt P19174); assay: Counterscreen for inhibitors of phospholipase C isozymes (PLC-B3): Fluorescence-based biochemical high throughput dose response assay to identify inhibitors of phospholipase C isozymes (PLC-gamma1).
# Chain of 1-phosphatidylinositol 4,5-bisphosphate phosphodiesterase gamma-1 (P19174 whole entry): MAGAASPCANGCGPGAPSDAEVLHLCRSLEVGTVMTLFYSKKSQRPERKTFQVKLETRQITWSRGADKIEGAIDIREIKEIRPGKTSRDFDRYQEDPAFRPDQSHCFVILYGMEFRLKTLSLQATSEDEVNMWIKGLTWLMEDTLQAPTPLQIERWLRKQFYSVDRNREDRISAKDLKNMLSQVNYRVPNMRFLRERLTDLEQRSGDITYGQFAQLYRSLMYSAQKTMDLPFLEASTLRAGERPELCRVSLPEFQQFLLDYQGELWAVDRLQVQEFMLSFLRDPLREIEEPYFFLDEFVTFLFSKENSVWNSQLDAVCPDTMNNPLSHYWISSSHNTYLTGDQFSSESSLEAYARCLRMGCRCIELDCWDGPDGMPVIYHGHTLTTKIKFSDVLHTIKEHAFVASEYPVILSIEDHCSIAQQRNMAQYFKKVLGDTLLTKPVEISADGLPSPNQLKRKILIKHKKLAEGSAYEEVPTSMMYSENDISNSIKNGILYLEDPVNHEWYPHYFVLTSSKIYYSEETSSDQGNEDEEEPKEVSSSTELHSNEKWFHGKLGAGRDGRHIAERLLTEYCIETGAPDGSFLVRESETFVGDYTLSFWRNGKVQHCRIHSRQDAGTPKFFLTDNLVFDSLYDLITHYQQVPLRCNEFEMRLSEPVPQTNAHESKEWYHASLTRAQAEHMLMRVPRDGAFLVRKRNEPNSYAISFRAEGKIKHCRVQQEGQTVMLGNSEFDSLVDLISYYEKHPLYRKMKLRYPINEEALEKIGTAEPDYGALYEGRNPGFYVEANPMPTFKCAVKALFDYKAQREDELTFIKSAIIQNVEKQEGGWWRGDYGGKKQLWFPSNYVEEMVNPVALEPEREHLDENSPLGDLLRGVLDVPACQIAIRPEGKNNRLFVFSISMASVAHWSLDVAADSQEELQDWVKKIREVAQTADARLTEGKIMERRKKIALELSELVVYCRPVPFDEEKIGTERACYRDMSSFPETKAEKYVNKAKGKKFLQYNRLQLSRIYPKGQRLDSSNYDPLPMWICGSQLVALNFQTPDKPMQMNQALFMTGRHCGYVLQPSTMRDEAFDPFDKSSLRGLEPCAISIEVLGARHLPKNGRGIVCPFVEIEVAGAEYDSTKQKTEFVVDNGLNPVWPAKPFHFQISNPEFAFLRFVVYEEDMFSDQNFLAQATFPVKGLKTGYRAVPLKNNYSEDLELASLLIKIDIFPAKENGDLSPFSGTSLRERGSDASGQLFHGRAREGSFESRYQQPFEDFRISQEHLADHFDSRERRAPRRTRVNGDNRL
# [12] = molecular target: COUP transcription factor 2 (Homo sapiens, UniProt P24468); assay: Luminescence-based cell-based high throughput dose response assay to identify inhibitors of COUP-TFII (NR2F2).; assay type: functional;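 further: HEK293 cells transiently cotransfected with COUP-TFII expression vector and reporter; luciferase reporter luminescence driven by COUP-TFII from the pX2-168 reporter plasmid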
# Chain of COUP transcription factor 2 (P24468 whole entry): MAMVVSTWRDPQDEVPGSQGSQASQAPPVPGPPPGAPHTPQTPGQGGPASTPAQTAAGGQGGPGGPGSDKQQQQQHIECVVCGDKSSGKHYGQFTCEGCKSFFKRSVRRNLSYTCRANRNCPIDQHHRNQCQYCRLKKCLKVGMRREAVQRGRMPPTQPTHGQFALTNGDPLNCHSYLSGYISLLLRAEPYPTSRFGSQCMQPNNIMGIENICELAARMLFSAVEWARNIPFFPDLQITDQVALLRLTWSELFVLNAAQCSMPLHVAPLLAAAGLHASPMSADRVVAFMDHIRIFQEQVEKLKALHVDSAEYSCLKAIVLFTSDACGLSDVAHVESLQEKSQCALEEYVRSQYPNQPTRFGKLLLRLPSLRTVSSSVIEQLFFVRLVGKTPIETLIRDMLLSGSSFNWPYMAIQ
# [13] = African trypanosome bloodstream form growth inhibition – STIB900 strain, plate reader, dry powder, dose response (AID 651894); assay type: functional, cell-based
# [14] = intracellular Chagas parasite inhibition in myoblasts – Tulahuen strain, L-6 host cells, dry powder, dose response (AID 651890); assay type: functional, cell-based
# [15] = intracellular Trypanosoma cruzi inhibitors in host cells – cell-based, plate reader, cherry-pick samples, set 3, dose response (AID 651818); assay type: functional;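 further: compounds incubated with infected cells for about four days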
# [16] = host muscle cell viability loss – plate reader, dry powder, counter-screen for T. cruzi inhibitor project, dose response (AID 651895); assay type: functional, cell-based
# [17] = Trypanosoma cruzi replication inhibitors in host cells – cell-based, plate reader, dry powder samples, dose response (AID 651845); assay type: functional
# [18] = African trypanosome bloodstream form growth inhibition – STIB900 strain, plate reader, cherry pick, dose response (AID 651893); assay type: functional, cell-based, Trypanosoma brucei rhodesiense; details: Trypanosoma brucei
# [19] = L6 myocyte viability loss – cell-based, plate reader, cherry-pick, cytotoxicity control, dose response (AID 651896); assay type: functional
# [20] = antileishmanial activity on axenic amastigotes – plate reader, cherry pick, dose response (AID 651891); assay type: functional, cell-based; details: Leishmania donovani
# [21] = T. cruzi growth inhibition in host cells, dose response, cell-based, plate reader, dry powder, set 2 (AID 652275); assay type: functional
# [22] = antileishmanial activity on axenic amastigotes – plate reader, dry powder, dose response (AID 651892); assay type: functional, cell-based
# [23] = antimalarial activity against erythrocytic parasites – NF54 strain, plate reader, dry powder, dose response (AID 651889); assay type: functional, cell-based
# [24] = anti-trypanosomal activity in BESM host cells – imaging, CA-I/72 strain, bovine embryo skeletal muscle, dry powder, dose response (AID 651885); assay type: functional, cell-based
# Cryptococcus neoformans = assay: PubChem AID 686997; assay type: functional, organism-based
# HeLa = assay: viability loss in HeLa cells – cell-based, ATP luminescence, cherry-pick samples, cytotoxicity control, dose response (AID 687004); assay type: functional; details: Homo sapiens
smiles,measurement,setting,value
Cc1cccc(NC(=O)NCc2ccc3c(c2)cc(C)n3C)c1,AC50,[1],306 nM (active)
same,IC50,Protein skinhead-1,> 100 µM (inactive)
CCCC#Cc1ccc2c(c1)COc1c3ccccc3nn1-2,EC50,[2],> 67.5 µM (inactive)
same,EC50,cells,> 67.5 µM (inactive)
O=C(NNC(=S)Nc1ccccc1)NNC(=S)Nc1ccccc1,IC50,[3],> 122 µM (inactive)
COC(=O)c1ccc2nc(NC(=O)C3CCCCC3)sc2c1,IC50,[4],51.6 µM (inactive)
O=C(Nc1nc(COc2ccccc2)cs1)C12CC3CC(CC(C3)C1)C2,IC50,[5],> 123 µM (inactive)
same,EC50,H4,19 µM (active)
same,IC50,[6],2.03 µM (not active)
same,AC50,[7],34.9 µM (active)
same,EC50,[8],20.7 µM (active)
same,AC50,[9],49.8 µM (active)
same,EC50,[10],26.8 µM (active)
same,IC50,[11],> 123 µM (inactive)
CC1(C)CC(=O)C=C(c2ccc(-c3cnc4ccccc4c3)cc2)C1=O,IC50,[12],4.87 µM (active)
C[C@H](CO)N1C[C@H](C)[C@H](CN(C)Cc2ccc(Oc3ccccc3)cc2)Oc2c(NC(=O)c3ccncc3)cccc2C1=O,IC50,[13],22.2 µM (inactive)
same,IC50,[14],75.5 nM (active)
same,AC50,[15],75 nM (active)
same,IC50,[16],54.7 µM (inactive)
same,AC50,[17],15.8 nM (active)
same,IC50,[18],18.5 µM (inactive)
same,IC50,[19],52.2 µM (active)
same,IC50,[20],> 100 µM (inactive)
same,AC50,[21],1.27 nM (active)
same,IC50,[22],> 100 µM (inactive)
same,IC50,[23],2.32 µM (inactive)
same,IC50,[24],9.8 nM (active)
COC(=O)C1=C(C)N(CC(C)C)C(=S)NC1c1ccc(Cl)cc1 (stereo not given),AC50,Cryptococcus neoformans,24 µM (active)
same,AC50,Cryptococcus neoformans; Cryptococcus neoformans,36.5 µM (active)
same,AC50,HeLa,> 60 µM (inactive)

# From ChEMBL document CHEMBL1201862, “PubChem BioAssay data set” (2004)
